Data from patent US6756362B2, “Methods and compositions based on inhibition of cell invasion and fibrosis by anionic polymers” (priority 1991, dated 2004).

Legend:
Sulfur content = format: physicochemical; details: by weight
[1] = test system: epidural fibrosis at laminectomy site, Lewis inbred rats; test: Epidural fibrosis after lumbar laminectomy in rats, gross evaluation; format: in vivo, rat; set-up: TOTAL SCORE / TOTAL SCORE 2 WEEKS: scale not given here; details: for inhibition of scar formation (in words): 20 mg/ml, versus buffer control; for TOTAL SCORE: Table 5, agent 20 mg/ml
Procedure: Epidural fibrosis was investigated after lumbar laminectomy in rats. In this model, a laminectomy was performed at the lumbar 3 and 5 vertebrae and then the test agent was applied to the laminectomy site. Subsequently, the laminectomy sites were examined for fibrosis by gross dissection or by histological analysis.
Laminectomies (described below) were performed at lumbar vertebrae L3 and L5 to provide auto-controls within each animal. Segments of GELFOAM® (Upjohn) soaked with experimental or control solutions were inserted into the laminectomy site. The soared GELFOAM® fragments were prepared and coded 24 hours beforehand. The GELFOAM® segments were soaked in solutions of dextran sulfate in calcium/magnesium-free phosphate buffered saline (CMF-PBS), dextran in CMF-PBS, or CMF-PBS alone. In some laminectomy sites, the GELFOAM® fragments were omitted, in order to serve as sham operations. Subsequently, the evaluation by gross dissection was done without knowledge of which solutions had been placed in which laminectomy site. Thus, the experiments were double-blind.
Lewis inbred rats were anesthetized with 4% chloral hydrate (34 mg/100 g body weight). The dorsal skin was incised and the paraspinal muscles were separated from the spinous processes of lumbar vertebrae L2 through L6. The spinous processes of L3 and L5 were removed with a rongeurs; then the vertebral lamina was removed with a micro-rongeurs creating a rectangular laminectomy defect 4×2 mm in size. After bleeding was stopped, a GELFOAM® segment was placed into the laminectomy site according to a randomized protocol. The overlying paraspinal muscles were closed over the site by suturing the superficial fascia together with resorbable 6-0 PDS II (Ethicon). The skin incision was closed with wound clips.
The animals were kept for two weeks prior to gross evaluation. At that time, the rats were anesthetized with 4% chloral hydrate and the wound was reopened by incising, the skin and separating the paraspinal muscles. The quality and quantity of scar tissue above the laminectomy site, the appearance of the GELFOAM® and the extent of new bone growth was evaluated by visual and tactile observation during sharp dissection. After the gross evaluation was complete, the rats were euthanized by anesthesia overdose.
All gross evaluations were made prior to breaking the treatment code, but the observations have been tabulated and presented below according to treatment group.

PC12 cells = test: PC12 neurite outgrowth assay; format: cell-based; details: NGF-primed PC12 cells; scored 2 days later
Procedure: (§1) Cell lines. Murine 3T3 fibroblast (NIH), rat C6 glioma (Paganetti et al., 1988, J. Cell Biol. 107:2281) and MCG-28 young immortalized mouse astrocyte (a murine neonatal astrocyte line immortalized with SV-40) were grown in medium composed of Dulbecco's modified Eagle medium (DMEM), 10% fetal calf serum (Gibco Laboratories), and penicillin G/streptomycin (100 units/ml, 100 μg/ml respectively, Gibco Laboratories). For the stripe assay, confluent plates were disaggregated with 0.05% trypsin, 0.53 mM EDTA (Gibco Laboratories) and seeded at 200,000 cells/ml (3 ml/plate). For the cell adhesion assays, confluent cultures were disaggregated with 0.03% EDTA and plated in a 96-well microtiter plate at 20,000-100,000 cells per well. PC12 cells, a pheochromocytoma cell line (Green L. A. & Tischler A. S., 1976, Proc. Natl. Acad. Sci. U.S.A. 73:2424), were grown in medium containing Roswell Park Memorial Institute (RPMI) medium 1640 (Gibco Laboratories), 10% horse serum, 5% fetal calf serum (FCS), and penicillin G/streptomycin (100 units/ml, 100 μg/ml respectively, Gibco Laboratories). The cells were disaggregated with 0.03% EDTA and plated in a 96-well microtiter plate at 3,000 cells per well.
PC12 cells were primed with 20 ng/ml NGF for 8 days, collected with 0.03% EDTA in PBS and plated in precoated 96-well microtiter plates at 3,000 cells/well. The microtiter plates were precoated with poly-L-lysine and blocked with adhesion medium (1% BSA in RPMI) for 20 min prior to addition of cells. The cells were grown in adhesion medium supplemented with 20 ng/ml NGF. The cells were allowed to attach for 2 hr prior to the addition of the test compounds (Akeson and Warren, 1986, Exp. Cell Res. 162:347-362).
PC-12 cells primed with NGF were plated in 96-well plates. Test solutions were added to the wells and the cells were scored 2 days later as (+) if neurites of at least two cell bodies diameter in length were present on the majority of the cells, and (−) if no or only short processes were present. […] The compounds tested included GAGs (heparin, dermatan sulfate, chondroitin sulfate A, keratan sulfate and hyaluronic acid), sulfated carbohydrate polymers (dextran sulfate and pentosan polysulfate), and another polyanionic polymer (e.g., alginic acid).

[2] = test system: rat meningeal fibroblasts (RMF); test: Colorimetric cell adhesion assay, RMF; format: cell-based; details: RMF on PLL; 4 hr incubation; FIG. 7
Procedure: Primary Cell Cultures. Primary cultures of rat meningeal fibroblasts (RMF) were obtained from P-3 rat pups. The tissue was removed from the animals and transferred to Leibovitz's L-15 with L-glutamine medium. The tissue was then cut into small pieces with a scalpel blade, enzymatically dissociated with 0.25% trypsin in Ca^2+/Mg^2+ free Hank's balanced salt solution (CMF-HBSS, Gibco Laboratories) for 20 minutes at 37° C., and mechanically triturated. The cells were rinsed with DMEM plus 10% FCS, concentrated by centrifugation and subsequently diluted in DMEM with 10% FCS for plating at 5.0×10^6 cells per 75 cm^2 flask. Adult rat sciatic nerve fibroblasts (RSF) were obtained by explantation of 1 mm sections of adult rat sciatic nerve.
(§2) Microtiter plates were precoated with poly-L-lysine and blocked with 1% BSA in DMEM for 20 min prior to addition of cells. The cells were plated on the precoated 96-well plates and test compounds were added to the culture medium. Following 4-24 hr incubation at 36° C., 5% C02, in a humidified incubator, the tetrazolium salt MTT (3-(4,5-dimethylthazol-2-yl)-2,5-diphenyl tetrazolium bromide) was added. The cultures were incubated for 2 hr to allow mitochondrial succinate dehydrogenase, found in viable cells, to […] the MTT to its formazan blue reaction product. The media was aspirated and the wells were rinsed to remove all detached cells. The formazan blue reaction product in attached cells was solubilized with 0.08 N HCl in isopropanol, and the plates were read in a microtiter plate reader (Dynatech MR4000) at 570 nm with a 630 nm reference filter. The resulting optical density readings are directly related to the number of viable cells in the well (Mosmann, T., 1983, J. Immunol. Methods 65:55-63). The samples were run in 3-6 replicates per point and the SD was less than 5%.
(§3) The adhesion of fibroblasts to PLL-coated microtiter plates in the presence of test compounds in the culture medium was evaluated using an MTT assay as described in Section 8.1.5., supra, and the number of attached cells was expressed as percent of control. The effect of 4 hr incubation in the presence of heparin, pentosan polysulfate, dextran sulfate, and dextran on adhesion of rat meningeal fibroplasts (RMF) and 3T3 cells to PLL is shown in FIG. 7.

3T3 cells = test: Colorimetric cell adhesion assay, 3T3; format: cell-based, mouse; details: 3T3 cells on PLL; 4 hr incubation; FIG. 7
Procedure: as §1, §2, §3

Question: With alginate as the substance, how does the “Sulfur Content” value (Sulfur content) read?
Answer: 0%

Question: And the “inhibition of scar formation (in words)” value [1]?
Answer: marginal improvement

Question: And the “TOTAL SCORE” value [1]?
Answer: 7.3 ± 1.9

Question: What about the “IC100, minimum concentration causing 100% inhibition of neurite outgrowth” value (PC12 cells) of the same substance?
Answer: 3.1e-06 g/mL

Question: Which results are given for chondroitin sulfate A?
Answer: Sulfur Content (Sulfur content): 5.6%; IC100, minimum concentration causing 100% inhibition of neurite outgrowth (PC12 cells): 0.0005 g/mL

Question: Which results are given for dermatan sulfate [Dermatan sulfate 90%]?
Answer: Sulfur Content (Sulfur content): 6.0%; IC100, minimum concentration causing 100% inhibition of neurite outgrowth (PC12 cells): 1.5e-05 g/mL

Question: What does the source list for hyaluronic acid [reference compound]?
Answer: Sulfur Content (Sulfur content): 0.6-0.8%; inhibition of scar formation (in words) [1]: no ability to inhibit scar formation; TOTAL SCORE [1]: 9.3 ± 0.5; IC100, minimum concentration causing 100% inhibition of neurite outgrowth (PC12 cells): 0.0002 g/mL

Question: For keratan sulfate, which “Sulfur Content” value (Sulfur content) is on record?
Answer: 6.4%

Question: What does the source list for “pentosan polysulfate [reference compound]”?
Answer: Sulfur Content (Sulfur content): 16.5%; number of attached cells compared to untreated controls [2]: decreased; inhibition of scar formation (in words) [1]: partial inhibition; TOTAL SCORE [1]: 5.0 ± 1.0; number of attached cells compared to untreated controls (3T3 cells): decreased; IC100, minimum concentration causing 100% inhibition of neurite outgrowth (PC12 cells): 3.9e-07 g/mL
